Test results from the supplement of paper PMC10307832.

Tests used:
Assay in all cases: relative viability (nuclei count vs DMSO), 5 days (fraction); higher = more cells survive
HCC-15 = system: HCC-15
Method in brief: (§1)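 Medians of duplicate plates are given as relative viability. That measure is the nuclei count in treated wells divided by the count in vehicle wells. Counts were taken on 4× images of lung cancer cell lines in 1536-well plates, 5 days after pin-tool dosing the day after seeding with one drug alone or a fixed anchor-drug dose plus five library-drug doses (not always all listed) in √10 steps.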

COR-L 105 = system: COR-L 105
Method in brief: as §1

HCC-78 = system: HCC-78
Method in brief: as §1

NCI-H1755 = system: NCI-H1755
Method in brief: as §1

ABC-1 = system: ABC-1
Method in brief: as §1

NCI-H2023 = system: NCI-H2023
Method in brief: as §1

NCI-H1975 = system: NCI-H1975
Method in brief: as §1

NCI-H358 = system: NCI-H358
Method in brief: as §1

EMC-BAC-2 = system: EMC-BAC-2
Method in brief: as §1

UMC-11 = system: UMC-11
Method in brief: as §1

EPLC-272H = system: EPLC-272H
Method in brief: as §1

NCI-H2126 = system: NCI-H2126
Method in brief: as §1

HOP-62 = system: HOP-62
Method in brief: as §1

NCI-H322M = system: NCI-H322M
Method in brief: as §1

NCI-H2085 = system: NCI-H2085
Method in brief: as §1

NCI-H3122 = system: NCI-H3122
Method in brief: as §1

CAL-12T = system: CAL-12T
Method in brief: as §1

LXF-289 = system: LXF-289
Method in brief: as §1

NCI-H1666 = system: NCI-H1666
Method in brief: as §1

NCI-H1915 = system: NCI-H1915
Method in brief: as §1

Compound: CC(=O)O[C@@]12CO[C@@H]1C[C@H](O)[C@@]1(C)C(=O)[C@H](O)C3=C(C)[C@@H](OC(=O)[C@H](O)[C@@H](NC(=O)OC(C)(C)C)c4ccccc4)C[C@@](O)([C@@H](OC(=O)c4ccccc4)[C@H]21)C3(C)C [Docetaxel] + CS(=O)(=O)CCNCc1ccc(-c2ccc3ncnc(Nc4ccc(OCc5cccc(F)c5)c(Cl)c4)c3c2)o1 [Lapatinib] (partner 2 µM)
- relative viability (HCC-15; first compound 0.0002 µM): 0.681
- relative viability (HCC-15; first compound 0.000632 µM): 0.372
- relative viability (HCC-15; first compound 0.002 µM): 0.208
- relative viability (HCC-15; first compound 0.006325 µM): 0.195
- relative viability (HCC-15; first compound 0.02 µM): 0.137
- relative viability (COR-L 105; first compound 0.0002 µM): 0.369
- relative viability (COR-L 105; first compound 0.000632 µM): 0.277
- relative viability (COR-L 105; first compound 0.002 µM): 0.313
- relative viability (COR-L 105; first compound 0.006325 µM): 0.283
- relative viability (COR-L 105; first compound 0.02 µM): 0.268
- relative viability (HCC-78; first compound 0.0002 µM): 0.593
- relative viability (HCC-78; first compound 0.000632 µM): 0.634
- relative viability (HCC-78; first compound 0.002 µM): 0.461
- relative viability (HCC-78; first compound 0.006325 µM): 0.246
- relative viability (HCC-78; first compound 0.02 µM): 0.204
- relative viability (NCI-H1755; first compound 0.0002 µM): 0.99
- relative viability (NCI-H1755; first compound 0.000632 µM): 0.756
- relative viability (NCI-H1755; first compound 0.002 µM): 0.495
- relative viability (NCI-H1755; first compound 0.006325 µM): 0.448
- relative viability (NCI-H1755; first compound 0.02 µM): 0.258
- relative viability (ABC-1; first compound 0.0002 µM): 1.21
- relative viability (ABC-1; first compound 0.000632 µM): 1.12
- relative viability (ABC-1; first compound 0.002 µM): 1.14
- relative viability (ABC-1; first compound 0.006325 µM): 0.797
- relative viability (ABC-1; first compound 0.02 µM): 0.577
- relative viability (NCI-H2023; first compound 0.0002 µM): 0.722
- relative viability (NCI-H2023; first compound 0.000632 µM): 0.408
- relative viability (NCI-H2023; first compound 0.002 µM): 0.135
- relative viability (NCI-H2023; first compound 0.006325 µM): 0.1
- relative viability (NCI-H2023; first compound 0.02 µM): 0.0578
- relative viability (NCI-H1975; first compound 0.0002 µM): 0.884
- relative viability (NCI-H1975; first compound 0.000632 µM): 0.449
- relative viability (NCI-H1975; first compound 0.002 µM): 0.268
- relative viability (NCI-H1975; first compound 0.006325 µM): 0.175
- relative viability (NCI-H1975; first compound 0.02 µM): 0.142
- relative viability (NCI-H358; first compound 0.0002 µM): 0.426
- relative viability (NCI-H358; first compound 0.000632 µM): 0.357
- relative viability (NCI-H358; first compound 0.002 µM): 0.332
- relative viability (NCI-H358; first compound 0.02 µM): 0.149
- relative viability (EMC-BAC-2; first compound 0.0002 µM): 0.735
- relative viability (EMC-BAC-2; first compound 0.000632 µM): 0.613
- relative viability (EMC-BAC-2; first compound 0.002 µM): 0.337
- relative viability (EMC-BAC-2; first compound 0.006325 µM): 0.278
- relative viability (EMC-BAC-2; first compound 0.02 µM): 0.209
- relative viability (UMC-11; first compound 0.0002 µM): 0.8
- relative viability (UMC-11; first compound 0.000632 µM): 0.831
- relative viability (UMC-11; first compound 0.002 µM): 0.249
- relative viability (UMC-11; first compound 0.006325 µM): 0.26
- relative viability (UMC-11; first compound 0.02 µM): 0.148
- relative viability (EPLC-272H; first compound 0.0002 µM): 1.04
- relative viability (EPLC-272H; first compound 0.000632 µM): 0.76
- relative viability (EPLC-272H; first compound 0.002 µM): 0.199
- relative viability (EPLC-272H; first compound 0.006325 µM): 0.0933
- relative viability (EPLC-272H; first compound 0.02 µM): 0.114
- relative viability (NCI-H2126; first compound 0.0002 µM): 0.738
- relative viability (NCI-H2126; first compound 0.000632 µM): 0.683
- relative viability (NCI-H2126; first compound 0.002 µM): 0.562
- relative viability (NCI-H2126; first compound 0.006325 µM): 0.395
- relative viability (NCI-H2126; first compound 0.02 µM): 0.253
- relative viability (HOP-62; first compound 0.0002 µM): 0.828
- relative viability (HOP-62; first compound 0.000632 µM): 0.448
- relative viability (HOP-62; first compound 0.02 µM): 0.112
- relative viability (NCI-H322M; first compound 0.0002 µM): 0.511
- relative viability (NCI-H322M; first compound 0.000632 µM): 0.593
- relative viability (NCI-H322M; first compound 0.002 µM): 0.497
- relative viability (NCI-H322M; first compound 0.006325 µM): 0.46
- relative viability (NCI-H322M; first compound 0.02 µM): 0.293
- relative viability (NCI-H2085; first compound 0.0002 µM): 0.787
- relative viability (NCI-H2085; first compound 0.000632 µM): 0.71
- relative viability (NCI-H2085; first compound 0.002 µM): 0.507
- relative viability (NCI-H2085; first compound 0.006325 µM): 0.462
- relative viability (NCI-H2085; first compound 0.02 µM): 0.342
- relative viability (NCI-H3122; first compound 0.0002 µM): 0.979
- relative viability (NCI-H3122; first compound 0.000632 µM): 0.977
- relative viability (NCI-H3122; first compound 0.002 µM): 0.942
- relative viability (NCI-H3122; first compound 0.006325 µM): 0.296
- relative viability (NCI-H3122; first compound 0.02 µM): 0.242
- relative viability (CAL-12T; first compound 0.0002 µM): 0.757
- relative viability (CAL-12T; first compound 0.000632 µM): 0.496
- relative viability (CAL-12T; first compound 0.002 µM): 0.277
- relative viability (CAL-12T; first compound 0.006325 µM): 0.25
- relative viability (LXF-289; first compound 0.0002 µM): 0.926
- relative viability (LXF-289; first compound 0.000632 µM): 0.847
- relative viability (LXF-289; first compound 0.002 µM): 0.393
- relative viability (LXF-289; first compound 0.006325 µM): 0.137
- relative viability (LXF-289; first compound 0.02 µM): 0.109
- relative viability (NCI-H1666; first compound 0.0002 µM): 0.462
- relative viability (NCI-H1666; first compound 0.000632 µM): 0.461
- relative viability (NCI-H1666; first compound 0.002 µM): 0.299
- relative viability (NCI-H1666; first compound 0.006325 µM): 0.197
- relative viability (NCI-H1666; first compound 0.02 µM): 0.198
- relative viability (NCI-H1915; first compound 0.0002 µM): 0.937
- relative viability (NCI-H1915; first compound 0.000632 µM): 0.665
- relative viability (NCI-H1915; first compound 0.002 µM): 0.351
- relative viability (NCI-H1915; first compound 0.006325 µM): 0.146
- relative viability (NCI-H1915; first compound 0.02 µM): 0.118
